According to US5994336A, “Method of inhibiting proliferation of cells by administering an aminosterol compound” (priority 1995, dated 1999):
Entries after “also recorded” stand apart in the source; their conditions may differ.

Assays:
[1] = Hematological profile of L1210-inoculated mice
From the text: C57B mice were inoculated with L1210 lymphoblastic leukemia cells at an inoculum that causes leukemia in 100% of animals.

[2] = test system: vitelline capillaries; test: Chick embryo vitelline capillary regression assay; format: in vivo
Procedure: Using the chick embryo vitelline capillaries assay, compounds were tested for their ability to induce capillary regression. Each compound was applied in 0.1 ml of 15% Ficol 400 and PBS onto the embryo, and vascular regression was assessed after 60 minutes.
The 3-day chick embryo consists of an embryonic disc from which numerous vessels emerge and return, forming a "FIG. 8"-shaped structure--the embryo in the center with vascular loops extending outward over both poles. […] Following a lag period of around 15 minutes, the constriction of continuity between capillary and secondary vessels, generally on the "venous" side, was observed. Continued pulsatile blood flow progressed, resulting in a "swelling" of the blind tube, followed by a pinching off of the remaining connection and formation of an enclosed vascular sac resembling a "blood island." This process progressed until only the largest vessels remained intact.

[3] = test system: Xenopus tadpole, stage 59-60; test: Tadpole assay; format: in vivo, Xenopus laevis; details: 10 μg/ml; for pharmacological response in tadpole (words): stage 59-60
From the text: For example, substances that destroy all of the animal's epithelium, both adult and embryonic, could be regarded as toxic.
The volume of liquid is sufficient for the animal to swim freely and drink from the solution. […] If the volume of liquid is not sufficient to permit oral intake, the effects that are observed would result from absorption through the surface epithelium.
In another embodiment of this assay, a solution of a compound in water can be injected directly into the abdomen of the animal using standard techniques.
After an amount of time, typically about 60 minutes, the occlusion of blood flow through capillaries in the tadpole's tail are observed under an inverted microscope at a magnification of roughly 100×.
In the assay, each of the steroids was dissolved in 100 ml of distilled water at a concentration of 10 μg/ml. Stage 59-60 Xenopus tadpoles were introduced and evaluated by light microscopy and gross observation 1 hour later.

[4] = test system: B16 melanoma; test: Suppression of growth of B16 melanoma in C57B mice; format: in vivo, mouse; details: subcutaneous; FIG. 6
Procedure: The growth of B16 melanoma in C57B mice is dependent upon neovascularization.
Using the growth of B16 melanoma cells in C57B mice, a recognized model for the evaluation of inhibitors of angiogenesis on the growth of cancers, the effects of subcutaneous, intraperitoneal and oral administration of squalamine were evaluated.

[5] = test system: NHE; test: Comparison of compound 319 with squalamine
From the text: Moreover, other aminosterols have shown anti-angiogenic activity. Compounds were subjected to a various assays, including the chick embryo capillary regression assay, the tadpole assay, the assay for inhibition of endothelial cord formation, and the assay for direct inhibition of NHE, as described above, to determine their utilities. As evident from the above data, correlation among the results from the chick, tadpole and in vitro inhibition of endothelial cell cord formation assays is excellent.
Through the application of these assays, compound 319 emerged as an attractive alternative to squalamine. […] Further properties of compound 319 are discussed below.

[6] = test system: human melanoma; test: Effect on growth of human melanoma (method of Baker et al.); format: cell-based; details: FIG. 17A
[7] = molecular target: T1, rabbit NHE3 (Oryctolagus cuniculus, UniProt P26432); format: cell-based; details: 10 μg/ml, acid preloaded; FIG. 10
T1 construct: BCECF internal pH recovery
T1 sequence (P26432 30-832): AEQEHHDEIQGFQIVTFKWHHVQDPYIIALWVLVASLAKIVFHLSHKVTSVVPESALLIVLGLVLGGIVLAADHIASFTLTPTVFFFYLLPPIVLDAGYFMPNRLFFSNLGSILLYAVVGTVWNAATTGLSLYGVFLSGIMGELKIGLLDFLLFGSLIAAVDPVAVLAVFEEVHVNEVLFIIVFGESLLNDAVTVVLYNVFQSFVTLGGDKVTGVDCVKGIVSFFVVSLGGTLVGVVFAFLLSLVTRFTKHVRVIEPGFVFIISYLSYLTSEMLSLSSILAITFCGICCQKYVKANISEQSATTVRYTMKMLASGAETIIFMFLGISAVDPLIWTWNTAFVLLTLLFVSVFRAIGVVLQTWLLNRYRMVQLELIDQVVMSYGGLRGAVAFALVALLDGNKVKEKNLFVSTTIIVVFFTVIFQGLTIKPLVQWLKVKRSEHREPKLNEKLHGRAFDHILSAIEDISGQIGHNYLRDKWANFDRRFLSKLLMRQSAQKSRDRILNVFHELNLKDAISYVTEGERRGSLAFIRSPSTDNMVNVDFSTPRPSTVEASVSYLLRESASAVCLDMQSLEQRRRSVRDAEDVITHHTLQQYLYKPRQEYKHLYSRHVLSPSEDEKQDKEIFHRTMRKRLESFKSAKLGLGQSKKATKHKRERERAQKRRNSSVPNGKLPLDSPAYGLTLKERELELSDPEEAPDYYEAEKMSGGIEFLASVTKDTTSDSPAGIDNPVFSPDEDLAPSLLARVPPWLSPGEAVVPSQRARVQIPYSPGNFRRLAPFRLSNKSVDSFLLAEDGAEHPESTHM

[8] = test system: PHA-stimulated human lymphocytes; test: Inhibition of mitogen (PHA)-stimulated growth of human T-cells; format: cell-based
From the text: Results are tabulated below.

[9] = test system: Human colon carcinoma HT29; test: Growth inhibition in vitro (Table 7); format: cell-based; details: 10 μg/ml
From the text: (§1) As set forth in Table 7 below, all malignant tumors evaluated in tissue culture, endothelial cells and vascular smooth muscle cells were sensitive to inhibition. Thus, compound 1436 has application in the control of growth factor dependent proliferation of many types of tissue.

[10] = test system: Human colon carcinoma SW948; test: Growth inhibition in vitro (Table 7); format: cell-based; details: 10 μg/ml
From the text: as §1

[11] = test system: Human coronary artery smooth muscle cells; test: Growth inhibition in vitro (Table 7); format: cell-based; details: 10 μg/ml
From the text: as §1

[12] = test system: Human melanoma WM 1617; test: Growth inhibition in vitro (Table 7); format: cell-based; details: 10 μg/ml
From the text: as §1

[13] = test system: Human microvascular endothelial cells; test: Growth inhibition in vitro (Table 7); format: cell-based; details: 10 μg/ml
From the text: as §1

[14] = test system: Lewis lung carcinoma; test: Growth inhibition in vitro (Table 7); format: cell-based; details: 10 μg/ml
From the text: as §1

[15] = test system: Murine B16 melanoma; test: Growth inhibition in vitro (Table 7); format: cell-based; details: 10 μg/ml
From the text: as §1

[16] = test system: Murine L1210 leukemia; test: Growth inhibition in vitro (Table 7); format: cell-based; details: 10 μg/ml
From the text: as §1

[17] = test system: bovine pulmonary endothelial cells; test: Growth inhibition in vitro (Table 7); format: cell-based; details: 10 μg/ml
From the text: as §1

[18] = test system: human umbilical venous endothelial cells; test: Growth inhibition in vitro (Table 7); format: cell-based; details: 10 μg/ml
From the text: as §1

[19] = test system: Human ovarian carcinoma SKOV3; test: Growth inhibition in vitro (Table 7); format: cell-based; details: 10 μg/ml
Procedure: as §1
Using the assay described above, the anticancer effects of compound 1437 against several cancer lines was assessed.

[20] = test system: B16 melanoma; test: Synergistic inhibition of tumor growth, B16 melanoma model; format: in vivo, mouse
Procedure: Based on the idea that tumor growth involves both the clonal expansion of a malignant cell along with the development of a supporting vascular supply, a combination of compound 1436 with squalamine was tested to determine whether it would achieve a synergistic effect on solid tumor growth. This concept was evaluated in the B16 melanoma model.
Animals were implanted with B16 melanoma followed by treatment with compound 1436 or 1256 administered in a combined schedule or separately. […] Thus, a combination of these two compounds achieves a therapeutic benefit in tumors dependent on neovascularization that may prevent metastatic spread.

[21] = Effect on fasting blood glucose in mice; format: in vivo, mouse; details: i.v.
Procedure: To study the effect of steroid administrator or the NHE responsible for secretion of insulin, several of the aminosterols from shark liver were administered to fasting mice. Male CD-1 mice were assigned to one of four treatment groups. Whole blood glucose was tested using glucometer (Lifescan Glucometer II and One Touch test strips). Statistical analysis was via one-way analysis of variance (ANOVA) followed by subsequent Bonferonni's t-test.

[22] = test system: human coronary artery smooth muscle; test: Proliferation of human coronary artery smooth muscle in vitro; format: cell-based
From the text: Aminosterols of the invention may also have utility in inhibiting the growth factor mediated proliferation of smooth muscle within the artery. Following coronary angioplasty, reocclusion commonly occurs, secondary to reparative proliferation of the vascular smooth muscle within the wall of the surgically manipulated blood vessel. This process generally takes place over the course of 7-10 days. To evaluate whether an agent could prevent the growth factor mediated proliferation of smooth muscle within the artery, compound 1436 was evaluated in vitro for its effect on the proliferation of human coronary artery smooth muscle. Results for compound 1436 are shown in FIG. 13, and those for squalamine are shown in FIG. 14, with FIG. 15 being a composite logarithmic plot.

[23] = Effect on growth and weight gain of C57B mice; format: in vivo, mouse
Procedure: Animals were dosed QTD (i.p.) starting on Day 1. […] Animals receiving 5 mg/kg QTD experienced about a 50% reduction in growth, compared to untreated controls, while animals receiving 1 mg/kg QTD were affected by about 10%. […] They appeared very much like hypophysectamized animals might appear.

[24] = Effect on arterial resistance in the rat after i.v. administration; format: in vivo
Procedure: A 200-g rat was catheterized in the right carotid artery, and the compound was introduced over a ten-second period to a total dosage of 5 mg/kg. Within 30 seconds, the mean arterial pressure had fallen from about 100 mm Hg to about 70 mm Hg, with a marked reduction in pulse pressure from about 40 mm to about 10 mm. […] If cardiac output was basically unaffected, reduction in blood pressure would have resulted principally from a reduction in system resistance.
At that time, 40 μg of noradrenaline was introduced.

[25] = test system: heart of a juvenile Xenopus laevis frog; test: Persistence of beating of isolated frog heart (ischemia); details: 10 μg/ml, adrenaline 50 μg/ml, room temperature; about one hour without compound
Procedure: To determine if compound 1436 has such utility, the following experiment was performed. The heart of a juvenile Xenopus laevis frog was dissected from the living animal. The heart was placed into a Petri dish containing Krebs-Ringer buffer with adrenaline 50 μg/ml, and examined with the naked eye. At room temperature, the heart continued beating in a coordinated fashion (atrial beat followed by ventricular beat) for about one hour. In the presence of 10 μg/ml of compound 1436, spontaneous beating persisted up to 24 hours.

[26] = test system: L1210 lymphoblastic leukemia; test: Survival of mice bearing L1210 leukemia
[27] = Chemical stability; format: physicochemical

Structure (SMILES): N.N.[Cl][Pt][Cl] [Cisplatin]
- hematological profile [1]: profound anemia by day 28

Structure (SMILES): C[C@H](CCC(=O)O)[C@H]1CC[C@H]2[C@@H]3CC[C@H]4C[C@@H](NCCCNCCCCN)CC[C@]4(C)[C@H]3CC[C@]12C [Compound 319]
- activity on vitelline capillaries [2]: especially active
- pharmacological response in tadpole (words) [3]: common vascular occlusive effect
- control of B16 melanoma [4]: control of B16 in C57B mice to an extent almost comparable to squalamine
- potency as an NHE inhibitor compared with squalamine [5]: superior to squalamine

Structure (SMILES): CC(C)CCC[C@@H](C)[C@H]1CC[C@H]2[C@@H]3CC[C@H]4C[C@@H](NCCCNCCCCNCCCN)CC[C@]4(C)[C@H]3CC[C@]12C [Compound 353]
- activity on vitelline capillaries [2]: no effect on the chick embryo capillary bed
- pharmacological response in tadpole (words) [3]: effects like those produced by compound 1436
- time course of effect on growth of melanoma [6]: most pronounced over 48 hours, with less of an effect noted within the first 12 hours of incubation

Structure (SMILES): CC(C)[C@@H](CC[C@@H](C)[C@H]1CC[C@H]2[C@@H]3[C@H](O)C[C@H]4C[C@@H](NCCCNCCCCNCCCN)CC[C@]4(C)[C@H]3CC[C@]12C)OS(=O)(=O)O [Compound 1436]
- inhibition of rabbit NHE3 [7]: found to inhibit rabbit NHE3
- activity on vitelline capillaries [2]: causes vitelline capillary regression with about the same potency as squalamine
- tissues or functions not affected in tadpole [3]: No effects are observed on epithelial cell integrity, vascular flow, erythrocyte volume, tissue integrity, muscle fiber striation, or GI tract activity
- pharmacological response in tadpole (words) [3]: Gradual reduction in overall activity. Heart beat remained strong, suggesting nervous system depression. Melanocytes over head and tail began to swell, first exhibiting visibly distinct nuclei, followed by rupture into fragments
- pharmacological response in tadpole (words) ([3]; listed as compound 1436): common vascular occlusive effect; also recorded: dramatic disruption of melanocytes over its head, trunk, and tail, along with depression of its nervous system
- inhibition of blast transformation [8]: inhibited blast transformation most potently
- inhibition in vitro [9]: INHIBITED
- inhibition in vitro [10]: INHIBITED
- inhibition in vitro [11]: INHIBITED
- inhibition in vitro [12]: INHIBITED
- inhibition in vitro [13]: INHIBITED
- inhibition in vitro [14]: INHIBITED
- inhibition in vitro [15]: INHIBITED
- inhibition in vitro [16]: INHIBITED
- inhibition in vitro [17]: INHIBITED
- inhibition in vitro [18]: INHIBITED
- inhibition in vitro [19]: INHIBITED
- effect compared with combination ([20]; compound 1436 alone in a tolerable schedule): Neither administration of squalamine at 15 mg/kg/day nor compound 1436 alone in a tolerable schedule could achieve this effect
- impact on tumor volume ([20]; compound 1436 alone, 10 mg/kg/every 3 days, FIG. 12): no significant impact on tumor volume
- blood glucose effect [21]: caused hyperglycemia in mice
- suppression of growth in vitro ([22]; FIG. 15): suppress in vitro the growth of human coronary artery smooth muscle
- viability at quiescent concentration ([22]; about 11 μg/ml): without loss of viability
- reduction in growth ([23]; 5 mg/kg QTD i.p., compared to untreated controls): ~50%
- reduction in growth ([23]; 10 mg/kg QTD i.p.): almost completely inhibited
- apparent health of treated animals ([23]; i.p.): all were active, normally proportioned, not-cachectic, and in excellent apparent clinical health
- reversibility ([24]; 40 μg noradrenaline at 30 minutes): readily reversible
- pulse pressure after dose ([24]; 5 mg/kg i.v., within 30 seconds, from about 40 mm): about 10 mm
- mean arterial pressure after dose ([24]; 5 mg/kg i.v., within 30 seconds, from about 100 mm Hg): about 70 mm Hg
- persistence of pressure effect ([24]; followed for 30 minutes): without significant change
- persistence of spontaneous beating [25]: up to 24 hours
- survival ([26]; highest dose, 10 mg/kg every 3 days i.p., FIG. 11): significant prolongation of life
- toxicity in leukemic mice ([26]; mouse, in vivo): without unfavorable toxicity

Structure (SMILES): CC(CCC(=O)C(C)(C)OS(=O)(=O)O)[C@H]1CCC2C3C(CC[C@@]21C)[C@@]1(C)CC[C@H](NCCCNCCCCN)C[C@@H]1C[C@H]3O (some centres unmarked) [FX1A]
- stability in water [27]: undergo conversion to another molecule (FX 1B) rapidly in water
